Measurements: patent US6211203A, “Benzofuran-4-carboxamides” (Byk Gulden Lomberg Chemische Fabrik GmbH, priority 1996, dated 2001)

Test system: PDE IV
Assay: Inhibition of PDE IV activity
Assay type: biochemical
Settings: Inhibition of PDE IV activity (Table A)

Compound | -log IC50
COc1ccc(C(=O)Nc2c(Cl)cncc2Cl)c2cc(C3CCCC3)oc12 [Compound 5, N-(3,5-Dichloropyrid-4-yl)-2-cyclopentyl-7-methoxybenzofuran-4-carboxamide] | 8.80
COc1ccc(C(=O)Nc2c(Cl)cncc2Cl)c2cc(C)oc12 [Compound 1, N-(3,5-Dichloropyrid-4-yl)-7-methoxy-2-methylbenzofuran-4-carboxamide] | 8.42

Next, values leading:

-log IC50 | Compound
8.18 | COc1ccc(C(=O)Nc2c(Cl)cncc2Cl)c2cc(C(C)C)oc12 [Compound 3, N-(3,5-Dichloropyrid-4-yl)-7-methoxy-2-(1-methylethyl)benzofuran-4-carboxamide]
9.28 | COc1ccc(C(=O)Nc2c(Cl)cncc2Cl)c2cc(C(C)C)oc12 [Compound 2, N-(3,5-Dichloropyrid-4-yl)-7-methoxy-2-(1-methylethyl)benzofuran-4-carboxamide]
9.72 | CC(C)c1cc2c(C(=O)Nc3c(Cl)cncc3Cl)ccc(OC(F)F)c2o1 [Compound 4, N-(3,5-Dichloropyrid-4-yl)-7-difluoromethoxy-2-(1-methylethyl)benzofuran-4-carboxamide]
